Values after ≈ are worked out from the molar mass of the structure shown.
Legend:
Assay in all cases: microbe, parasite or virus in culture
Assay type in all cases: cell-based
[1] = test system: drug-resistant Mycobacterium tuberculosis 246 (streptomycin-resistant); details: for MIC: Mycobacterium tuberculosis, read-out: MIC, drug-resistant bacterium 246 (S single-resistant); for MIC value, times of that of the control drug PA-824, strain 246: relative to PA-824
[2] = test system: drug-resistant Mycobacterium tuberculosis 242 (isoniazid-resistant); details: for MIC: Mycobacterium tuberculosis, read-out: MIC, drug-resistant bacterium 242 (H single-resistant); for MIC value, times of that of the control drug PA-824, strain 242: relative to PA-824
[3] = test system: drug-resistant Mycobacterium tuberculosis 261 (rifampicin-resistant); details: for MIC: Mycobacterium tuberculosis, read-out: MIC, drug-resistant bacterium 261 (R single-resistant); for MIC value, times of that of the control drug PA-824, strain 261: relative to PA-824

| Compound | MIC [1] | MIC value, times of that of the control drug PA-824, strain 246 [1] | MIC [2] | MIC value, times of that of the control drug PA-824, strain 242 [2] | MIC [3] | MIC value, times of that of the control drug PA-824, strain 261 [3] |
| --- | --- | --- | --- | --- | --- | --- |
| O=[N+]([O-])c1cn2c(n1)OC[C@@H](NCc1ccc(N3CCC(Oc4ccc(OC(F)(F)F)cc4)CC3)nc1)C2 [Compound 1, (S)-2-nitro-N-((6-(4-(4-(trifluoromethoxy)phenoxy)piperidin-1-yl)pyrid-3-yl)methyl)-6,7-dihydro-5H-imidazo[2,1-b][1,3]oxazin-6-amine] | 7.8 ng/mL (≈ 0.0146 µM) | 64 times | 7.8 ng/mL (≈ 0.0146 µM) | 128 times | 7.8 ng/mL (≈ 0.0146 µM) | 64 times |
| O=[N+]([O-])c1cn2c(n1)OC[C@@H](NCc1ccc(N3CCN(c4ccc(OC(F)(F)F)cc4)CC3)nc1)C2 [Compound 4, (S)-2-nitro-N-((6-(4-(4-(trifluoromethoxy)phenyl)piperazin-1-yl)pyrid-3-yl)methyl)-6,7-dihydro-5H-imidazo[2,1-b][1,3]oxazin-6-amine] | 1.95 ng/mL (≈ 0.00375 µM) | 256 times | 1.95 ng/mL (≈ 0.00375 µM) | 512 times | 1.95 ng/mL (≈ 0.00375 µM) | 256 times |
| CC1CN(c2ccc(CN[C@@H]3COc4nc([N+](=O)[O-])cn4C3)cn2)CCN1c1ccc(OC(F)(F)F)cc1 (stereo partly drawn) [Compound 5, (3S)—N-((6-(3-methyl-4-(4-(trifluoromethoxy)phenyl)piperazin-1-yl)pyrid-3-yl)methyl)-7-nitro-3,4-dihydro-2H-imidazo[2,1-b][1,3]oxazin-3-amine] | 1.95 ng/mL (≈ 0.00366 µM) |  | 3.9 ng/mL (≈ 0.00731 µM) |  | 1.95 ng/mL (≈ 0.00366 µM) |  |
| CC1CN(c2ccc(OC(F)(F)F)cc2)CCN1c1ccc(CN[C@@H]2COc3nc([N+](=O)[O-])cn3C2)cn1 (stereo partly drawn) [Compound 6, (3S)—N-((6-(2-methyl-4-(4-(trifluoromethoxy)phenyl)piperazin-1-yl)pyrid-3-yl)methyl)-7-nitro-3,4-dihydro-2H-imidazo[2,1-b][1,3]oxazin-3-amine] | 7.8 ng/mL (≈ 0.0146 µM) |  | 15.6 ng/mL (≈ 0.0292 µM) |  | 7.8 ng/mL (≈ 0.0146 µM) |  |
| N#CC1(c2ccc(OC(F)(F)F)cc2)CCN(c2ccc(CN[C@@H]3COc4nc([N+](=O)[O-])cn4C3)cn2)CC1 [Compound 10, (S)-1-(5-(((7-nitro-3,4-dihydro-2H-imidazo[2,1-b][1,3]oxazin-3-yl)amino)methyl)pyridin-2-yl)-4-(4-(trifluoromethoxy)phenyl)piperidine-4-carbonitrile] | 1.95 ng/mL (≈ 0.00359 µM) | 256 times | 1.95 ng/mL (≈ 0.00359 µM) | 512 times | 1.95 ng/mL (≈ 0.00359 µM) | 256 times |
| O=[N+]([O-])c1cn2c(n1)OC[C@@H](NCc1ccc(N3C4CCC3CC(Oc3ccc(OC(F)(F)F)cc3)C4)nc1)C2 (stereo partly drawn) [Compound 14, (6S)-2-nitro-N-((6-(3-(4-(trifluoromethoxy)phenoxy)-8-azabicyclo[3.2.1]octan-8-yl)pyrid-3-yl)methyl)-6,7-dihydro-5H-imidazo[2,1-b][1,3]oxazin-6-amine] | 7.8 ng/mL (≈ 0.0139 µM) |  | 15.6 ng/mL (≈ 0.0278 µM) |  | 7.8 ng/mL (≈ 0.0139 µM) |  |
| O=[N+]([O-])c1cn2c(n1)OC[C@@H](NCc1cnc(N3CCN(c4ccc(OC(F)(F)F)cc4)CC3)nc1)C2 [Compound 18] | 7.8 ng/mL (≈ 0.015 µM) | 64 times | 7.8 ng/mL (≈ 0.015 µM) | 128 times | 7.8 ng/mL (≈ 0.015 µM) | 64 times |
| CC1CN(c2ncc(CN[C@@H]3COc4nc([N+](=O)[O-])cn4C3)cn2)CCN1c1ccc(OC(F)(F)F)cc1 (stereo partly drawn) [Compound 19] | 7.8 ng/mL (≈ 0.0146 µM) | 64 times | 7.8 ng/mL (≈ 0.0146 µM) | 128 times | 7.8 ng/mL (≈ 0.0146 µM) | 64 times |
| CC1CN(c2ccc(OC(F)(F)F)cc2)CCN1c1ncc(CN[C@@H]2COc3nc([N+](=O)[O-])cn3C2)cn1 (stereo partly drawn) [Compound 20, (3S)—N-((6-(2-methyl-4-(4-(trifluoromethoxy)phenyl)piperazin-1-yl)pyrimidin-3-yl)methyl)-7-nitro-3,4-dihydro-2H-imidazo[2,1-b][1,3]oxazin-3-amine] | 1.95 ng/mL (≈ 0.00365 µM) | 256 times | 1.95 ng/mL (≈ 0.00365 µM) | 512 times | 1.95 ng/mL (≈ 0.00365 µM) | 256 times |
| N#CC1(c2ccc(OC(F)(F)F)cc2)CCN(c2ncc(CN[C@@H]3COc4nc([N+](=O)[O-])cn4C3)cn2)CC1 [Compound 24, (S)-1-(5-(((7-nitro-3,4-dihydro-2H-imidazo[2,1-b][1,3]oxazin-3-yl)amino)methyl)pyrimidin-2-yl)-4-(4-(trifluoromethoxy)phenyl)piperidine-4-carbonitrile] | 3.9 ng/mL (≈ 0.00716 µM) | 128 times | 3.9 ng/mL (≈ 0.00716 µM) | 256 times | 3.9 ng/mL (≈ 0.00716 µM) | 128 times |
| O=[N+]([O-])c1cn2c(n1)OC[C@@H](NCc1cnc(N3CCN(c4ccc(C(F)(F)F)cc4)CC3)nc1)C2 [Compound 31, (S)-2-nitro-N-((2-(4-(4-(trifluoromethyl)phenyl)piperazin-1-yl)pyrimidin-5-yl)methyl)-6,7-dihydro-5H-imidazo[2,1-b][1,3]oxazin-6-amine] | 7.8 ng/mL (≈ 0.0155 µM) |  | 7.8 ng/mL (≈ 0.0155 µM) |  | 7.8 ng/mL (≈ 0.0155 µM) |  |
| Cc1nc(N2CCN(c3ccc(OC(F)(F)F)cc3)CC2)ncc1CN[C@@H]1COc2nc([N+](=O)[O-])cn2C1 [Compound 36] | 7.8 ng/mL (≈ 0.0146 µM) | 64 times | 7.8 ng/mL (≈ 0.0146 µM) | 128 times | 7.8 ng/mL (≈ 0.0146 µM) | 64 times |
| N#Cc1nc(N2CCN(c3ccc(OC(F)(F)F)cc3)CC2)ncc1CN[C@@H]1COc2nc([N+](=O)[O-])cn2C1 [Compound 40, (S)-5-(((2-nitro-6,7-dihydro-5H-imidazo[2,1-b][1,3]oxazin-6-yl)amino)methyl)-2-(4-(4-(trifluoromethoxy)phenyl)piperazin-1-yl)pyrimidine-4-carbonitrile] | 7.8 ng/mL (≈ 0.0143 µM) | 64 times | 7.8 ng/mL (≈ 0.0143 µM) | 128 times | 7.8 ng/mL (≈ 0.0143 µM) | 64 times |
| CN(Cc1cnc(N2CCN(c3ccc(OC(F)(F)F)cc3)CC2)nc1)[C@@H]1COc2nc([N+](=O)[O-])cn2C1 [Compound 44, (S)—N-methyl-2-nitro-N-((2-(4-(4-(trifluoromethoxy)phenyl)piperazin-1-yl)pyrimidin-5-yl)methyl)-6,7-dihydro-5H-imidazo[2,1-b][1,3]oxazin-6-amine] | 1.95 ng/mL (≈ 0.00365 µM) | 256 times | 1.95 ng/mL (≈ 0.00365 µM) | 512 times | 1.95 ng/mL (≈ 0.00365 µM) | 256 times |
| O=[N+]([O-])c1cn2c(n1)OC[C@@H](OCc1ccc(OC(F)(F)F)cc1)C2 [PA-824, reference compound] | 500 ng/mL (≈ 1.39 µM) |  | 1000 ng/mL (≈ 2.78 µM) |  | 500 ng/mL (≈ 1.39 µM) |  |
